Values of other authors as cited in patent US20170333389A1, “Method of Ameliorating Clotting Pathologies and Related Materials and Methods” (The Ohio State University, priority 2012, published 2017).

Assays:
platelet aggregation = settings: low-dose aspirin (81 mg) treated healthy volunteers
[1] = patients who have had a TIA or stroke

CC(=O)Oc1ccccc1C(=O)O [aspirin]
platelet function recovery after withdrawal (platelet aggregation): 48 to 72 h | decrease of relative risk of non-fatal ischemic stroke (recurrent stroke; [1]): 19% | decrease of relative risk of recurrent stroke, myocardial infarction, and vascular death (recurrent stroke; [1]): 13%

CC(C)c1c(C(=O)Nc2ccccc2)c(-c2ccccc2)c(-c2ccc(F)cc2)n1CC[C@@H](O)C[C@@H](O)CC(=O)O [atorvastatin]
decrease of risk of recurrent stroke (recurrent stroke; patients with stroke, high dose, over 5 years): about 2%

CC(=O)CC(c1ccccc1)c1c(O)c2ccccc2oc1=O (centres unmarked) [warfarin]
decrease of relative stroke risk (recurrent stroke; patients with stroke due to atrial fibrillation, dose-adjusted): 62%
